This is an account of results in patent publication US4197403A, “4-Aminosubstituted imidazo(1,2-A)quinoxalines” (Westwood Pharmaceuticals Inc., priority 1977, dated 1980).

One assay concerns rat paw edema. As to the kind of experiment: Rat paw edema assay, oral dosing. It counts as in vivo. Particulars: four hours after drug; for change in vivo at 100 mg/kg / change in vivo at 400 mg/kg: Rattus norvegicus, 4 h, read-out: % Difference from Control. Here is the method:
(§1) The anti-inflammatory activity of representative compounds of this invention was determined by the rat paw edema assay both by local administration (Table XI below) and by oral dosing (Table XII below). For the oral dosing, the procedure of C. A. Winter, E. A. Risley and G. W. Nuss, Proc. Soc. Exp. Biol. Med. 111, 544 (1962) was employed with measurement taken four hours after the drug was administered.
(§2) Tables XI and XII report the anti-inflammatory activity of the compounds tested as % difference in the edema or swelling as compared with the control. These Tables also give the response in many instances of more than one dose level of the same drug.

In a further assay the test system is Trichophyton ajelloi. As to the kind of experiment: Antifungal activity, agar dilution method: T. ajelloi. It counts as cell-based. Conditions: Arthroderma uncinatum, read-out: Antifungal Activity, Parts Per Million Inhibitions of Fungus and Yeast Species: T. ajelloi. As for the experimental part: (§3) Various compounds of this invention display antifungal and anti-yeast activity.
(§4) In Table IX below are listed the antifungal activity of a number of compounds encompassed in the present invention. These were determined by the agar dilution method as described in Chapters 2 and 3 of Methods in Microbiology, Vol. 7B, edited by J. R. Norris and D. W. Ribbons, Academic Press, New York, 1972.
On the technique in general: In agar dilution, organisms are placed on agar that contains the substance at set levels.

In assay [1] the test system is Trichophyton mentagrophytes (ATCC No. 8757 and 9129). As to the kind of experiment: Antifungal activity, agar dilution method: T. mentagrophytes. It counts as cell-based. Particulars: ATCC8757, agar dilution, read-out: Antifungal Activity, Parts Per Million Inhibitions of Fungus and Yeast Species: T. mentagrophytes. As for the experimental part:
as §3, §4

Assay [2] has as its system Trichophyton rubrum (ATCC No. 10218 and 14001). The assay is described as follows: Antifungal activity, agar dilution method: T. rubrum. The assay is classed as cell-based. Particulars: for Antifungal Activity, Parts Per Million Inhibitions of Fungus and Yeast Species: T. rubrum: agar dilution. Here is the method:
as §3, §4

The next assay has as its system Candida tropicalis. As to the kind of experiment: Antifungal activity, agar dilution method: C. tropicalis. The assay is classed as cell-based. Particulars: read-out: Antifungal Activity, Parts Per Million Inhibitions of Fungus and Yeast Species: C. tropicalis. As for the experimental part: as §3, §4
For assay [3], the system named is carrageenan rat paw edema. The assay is described as follows: Rat paw edema assay, local administration. The assay is classed as in vivo. Particulars: injected directly into paw, 1 μg, read-out: % Difference from Control. As for the experimental part:
as §1
The local administration tests were carried out similarly except the irritant (carrageenan) and the test compound were injected simultaneously at time zero.
as §2

Assay [4] is described as follows: Immunosuppressant activity (in words).

In brackets after ≈: the same amount, converted by molar mass.

Consider `CC(=O)Nc1ccc(-c2nc3ccccc3n3ccnc23)cc1` [Compound 155], for which, in the assay with rat paw edema (100 mg/kg), the change in vivo at 100 mg/kg is 70%. Also, in the assay on rat paw edema (400 mg/kg), the change in vivo at 400 mg/kg is -25%. The matching figures for `FC(F)(F)c1nc2ccccc2n2ccnc12` [Compound 122]: -17% and -68%.

Regarding `O=C(Nc1cccc(C(F)(F)F)c1)Nc1ccccc1-n1ccnc1` [Compound 82], the MIC in the assay with Trichophyton ajelloi was 100 µg/mL (≈ 289 µM); in assay [1] it was 100 µg/mL (≈ 289 µM); in assay [2] (Trichophyton rubrum, ATCC10218, agar dilution, read-out: Antifungal Activity, Parts Per Million Inhibitions of Fungus and Yeast Species: T. rubrum) it was 100 µg/mL (≈ 289 µM). With `CC(=O)Oc1ccc(-c2nc3ccccc3n3ccnc23)cc1` [Compound 163], the MIC with Candida tropicalis was determined as 100 µg/mL (≈ 330 µM). Take `CCCCCc1nc2ccccc2n2ccnc12` [Compound 114]: the change in vivo at 0.001 mg in assay [3] was -68.2%. For the compound `O=C(Nc1ccccc1-n1ccnc1)c1cccc(Br)c1` [Compound 59], the MIC (in the assay on Trichophyton ajelloi; in assay [1]) was 100 µg/mL (≈ 292 µM) in each case. Consider `CCCCCCCCCCCCCCCCCc1nc2ccccc2n2ccnc12` [Compound 120], for which the “Antifungal Activity, Parts Per Million Inhibitions of Fungus and Yeast Species: T. rubrum” value in assay [2] is 1 Parts Per Million. Take `Cc1cccc(C(=O)Nc2ccccc2-n2ccnc2)c1` [Compound 36]: the “% Difference from Control” value in the assay on rat paw edema (100 mg/kg) is recorded as -7%; in the assay with rat paw edema (400 mg/kg), -68%. With `c1ccc(-c2nc3ccccc3n3ccnc23)cc1` [Compound 131, 4-phenylimidazo[1,2-a]quinoxaline], the immunosuppressant activity entry in assay [4] is reported as “only minor activity”. For the compound `CCCCCCCc1nc2ccccc2n2ccnc12` [Compound 116], the MIC in the assay on Trichophyton ajelloi is 100 µg/mL (≈ 374 µM). With `c1ccc2c(c1)ncc1nccn12` [Compound 109, imidazo[1,2-a]quinoxaline], the immunosuppressant activity entry in assay [4] is on record as “lacks immunosuppressant activity”.

`CCCCCCCCCCCCCCCc1nc2ccccc2n2ccnc12` [Compound 119]: the “Antifungal Activity, Parts Per Million Inhibitions of Fungus and Yeast Species: T. rubrum” value in assay [2] is 8 Parts Per Million.
